{"source": "patent US6497896B2", "about": "“Method for administering camptothecins via injection of a pharmaceutical composition comprising microdroplets containing a camptothecin” (priority 2001, dated 2002)", "key": {"[1]": {"system": "A375 human melanoma xenograft", "settings": "for survivors (FIG. 10 comparison): I.P.", "text": "The following study evaluates two intravenous formulations according to the present invention against human tumor xenografts in athymic nude mice. […] Examples 1 and 2 describe the compositions of IDD-P (FIG. 1; formulation 1-F) and IDD-D respectively.\nHusbandry: Female nude mice were 16 weeks of age (NCR-nufBr; Taconic Farms) for the A375 study. The mice were fed ad libitum water (reverse osmosis, 1 ppm C1) and autoclaved Prolab NIH-31 M/5% Rodent Diet consisting of 18% protein, 5% fat, 6% fiber, and 8% ash. Mice were housed in static microisolators on a 12-hour light cycle at 21-22° C. (70-72° F.) and 40%-60% humidity. The animal care and use program is AAALAC International accredited and specifically follows and complies with the recommendation of the National Research Council's Guidefor the Care and Use of Laboratory Animals.\nTumor Implantation: An A375 melanoma fragment (1 mm 3) was implanted subcutaneously in the flank of each nude mouse. When the tumors reached the 60-112 mg size range, the mice were sorted into treatment groups (on Day 1) such that the group mean tumor sizes ranged from 71.3 mg-72.5 mg. Estimated tumor weight was calculated using the formula: [formula]\nCAMPTOSAR®, DTIC®, and HYCAMTIN® were obtained as the marketed drugs and solutions were prepared fresh on the day of dosing. CAMPTOSAR® (irinotecan, Phannacia & Upjohn Company, 20 mg/ml) and DTIC® (dacarbazine, Bayer Corporation, 20 mg/ml) were diluted with D5W. HYCAMTIN® (topotecan, SmithKlein Beecham) was reconstituted with water at 1 mg/ml.\nTreatments: Volumes of 0.20 ml per 20-g mouse, body-weight adjusted, were administered once daily. Tumor-bearing athymic nude mice were matched on Day 1 into 13 groups of ten animals and drug administration was initiated. […] Three reference drugs were administered I.P.: CAMPTOSAR® was given in three doses at weekly intervals (qwk×3); HYCAMTIN® was given in four doses at four-day intervals (q4d×4); and DTIC® was given in five consecutive daily doses (qd×5). The tumor growth control group for these reference treatments received no treatment (Group 1).\nTumor Growth Endpoint: The tumor growth delay (TGD) method was used to assess efficacy. Tumor dimensions were measured twice weekly until the experiment was terminated on Day 62. Each animal was euthanized as a “cancer death” when its A375 melanoma reached a size of 2.0 g. Mean Day of Survival (MDS) values for all groups were based on the calculated day of death of each mouse, which is given by the formula: [formula]\nTGD values, which represent treatment-effected extensions of survival time, were calculated from MDStreated−MDScontrol, the difference in MDS value for a given treatment group and the MDS value for A375 melanoma-bearing mice that received no treatment or the corresponding vehicle.\nAt the termination of the experiment on Day 62, treatment responses in survivors were classified as either complete tumor regression (CR), partial tumor regression (PR), or stable/progressive disease (SD/PD). A CR response indicates the absence of measurable tumor. In a PR response, the final tumor weight is lower than on Day 1 but larger than 0 mg. In a SD/PD response, mice survived to Day 62 with a progressively growing or stable tumor size that had not reached the 2.0-g endpoint.\nEvaluation of Toxicity: The maximum tolerated dose (MTD), as defined by the NCI, is the highest dose at which no more than 10% of the animals die and the group mean body-weight loss is no more than 20%. Body weights were measured daily for four or five days and then twice weekly thereafter until the experiments were terminated on Day 62 of the study. The animals were also examined frequently for clinical signs of any adverse, drug-related side effects. Because mice are not tagged for MTD studies, only the mean group body weights recorded in the appended raw data are significant in those studies."}, "[2]": {"settings": "cited from earlier work"}, "[3]": {"settings": "human plasma, pH 7.4, 37° C.; cited from earlier work"}, "[4]": {"target": "human serum albumin (HSA) (Homo sapiens, UniProt P02768)", "sequence (P02768 25-609)": "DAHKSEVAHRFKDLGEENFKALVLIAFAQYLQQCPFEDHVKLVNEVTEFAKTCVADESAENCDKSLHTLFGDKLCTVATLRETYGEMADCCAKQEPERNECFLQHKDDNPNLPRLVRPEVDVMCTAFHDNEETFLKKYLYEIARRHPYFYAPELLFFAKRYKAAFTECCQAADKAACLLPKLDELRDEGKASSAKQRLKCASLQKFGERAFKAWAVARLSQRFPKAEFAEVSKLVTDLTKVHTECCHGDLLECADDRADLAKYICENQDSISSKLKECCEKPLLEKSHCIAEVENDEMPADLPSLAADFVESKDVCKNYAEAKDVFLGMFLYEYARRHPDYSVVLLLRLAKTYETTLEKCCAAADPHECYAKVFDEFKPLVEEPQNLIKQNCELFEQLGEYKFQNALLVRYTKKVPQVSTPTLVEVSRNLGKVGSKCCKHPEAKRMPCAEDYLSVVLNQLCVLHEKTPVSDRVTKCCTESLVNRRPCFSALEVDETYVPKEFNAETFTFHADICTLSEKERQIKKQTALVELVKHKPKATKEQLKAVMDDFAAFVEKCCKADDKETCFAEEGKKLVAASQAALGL", "settings": "PBS at pH 7.4; cited from earlier work"}, "[5]": {"settings": "whole blood; cited from earlier work"}, "[6]": {"settings": "in 3% DMA 2.0 mg/kg p.o., q3d×4"}, "[7]": {"settings": "in 3% DMA 4.0 mg/kg p.o., q3d×4"}}, "note": "Like-named read-outs stand apart in the source and are kept apart here.", "data": [{"molecule": "CCc1c2c(nc3ccc(OC(=O)N4CCC(N5CCCCC5)CC4)cc13)-c1cc3c(c(=O)n1C2)COC(=O)[C@]3(O)CC", "note": "[CAMPTOSAR®, irinotecan]", "values": [{"measurement": "62-day survivors (number of 10 mice)", "setting": "[1]; 100 mg/kg I.P., qwk×3", "result": "one"}, {"measurement": "mean day of survival (MDS)", "setting": "[1]; 100 mg/kg I.P., qwk×3, Group 5 (n=9)", "result": 47.3, "unit": "days"}, {"measurement": "tumor growth delay (TGD)", "setting": "[1]; 100 mg/kg I.P., qwk×3, vs untreated Group 1", "result": 17, "unit": "days"}, {"measurement": "survivors (FIG. 10 comparison)", "setting": "[1]; optimal regimen (100 mg/kg qwk×3)", "result": 0, "unit": "%"}]}, {"molecule": "CC[C@@]1(O)C(=O)OCc2c1cc1n(c2=O)Cc2cc3c(CN(C)C)c(O)ccc3nc2-1", "note": "[HYCAMTIN®, topotecan]", "values": [{"measurement": "62-day survivors (number of 10 mice)", "setting": "[1]; 10 mg/kg I.P., q4d×4", "result": "one"}, {"measurement": "mean day of survival (MDS)", "setting": "[1]; 10 mg/kg I.P., q4d×4, Group 6 (n=9)", "result": 46.7, "unit": "days"}, {"measurement": "tumor growth delay (TGD)", "setting": "[1]; 10 mg/kg I.P., q4d×4, vs untreated Group 1", "result": 16.4, "unit": "days"}, {"measurement": "survivors (FIG. 10 comparison)", "setting": "[1]; optimal regimen (10 mg/kg q4d×4)", "result": 0, "unit": "%"}]}, {"molecule": "CN(C)/N=N/c1[nH]cnc1C(N)=O", "note": "[DTIC®, dacarbazine]", "values": [{"measurement": "mean day of survival (MDS)", "setting": "[1]; 150 mg/kg I.P., qd×5, Group 7 (n=8)", "result": 37.6, "unit": "days"}, {"measurement": "tumor growth delay (TGD)", "setting": "[1]; 150 mg/kg I.P., qd×5, vs untreated Group 1, not statistically significant", "result": 7.3, "unit": "days"}, {"measurement": "survivors (FIG. 10 comparison)", "setting": "[1]; optimal regimen (150 mg/kg qd×5)", "result": 10, "unit": "%"}]}, {"molecule": "CC[C@@](O)(C(=O)[O-])c1cc2n(c(=O)c1CO)Cc1cc3ccccc3nc1-2.[Na+]", "note": "[Sodium camptothecin]", "values": [{"measurement": "side effects", "setting": "[2]; administered via i.v.", "result": "unpredictable side effects such as myelosuppression and hemorrhagic cystitis"}, {"measurement": "antitumor activity in clinical trials", "setting": "[2]; solubilized by sodium hydroxide in water, early 70's", "result": "antitumor activity"}]}, {"molecule": "CC[C@@]1(O)C(=O)OCc2c1cc1n(c2=O)Cc2cc3ccccc3nc2-1", "note": "[camptothecin, 20(S)-camptothecin]", "values": [{"measurement": "% α-hydroxy lactone at equilibrium", "setting": "[3]", "result": 0.2, "unit": "%"}, {"measurement": "half-life of lactone ring opening", "setting": "[3]", "result": 11, "unit": "min"}, {"measurement": "affinity of HSA for carboxylate form versus α-hydroxy lactone form", "setting": "[4]", "result": 150, "unit": "fold"}, {"measurement": "equilibrium α-hydroxy lactone concentration", "setting": "[5]", "result": 5.3, "unit": "%"}, {"measurement": "half-life of lactone", "setting": "[5]", "result": 22, "unit": "min"}]}, {"molecule": "CC[C@@]1(O)C(=O)OCc2c1cc1n(c2=O)Cc2cc3c([N+](=O)[O-])cccc3nc2-1", "note": "[9-nitro-camptothecin, 9-nitro-20(S)-camptothecin]", "values": [{"measurement": "CR responses, share of mice", "setting": "[1]; 2 mg/kg p.o., q3d×4", "result": 40, "unit": "%"}, {"measurement": "CR responses, share of mice", "setting": "[1]; 4 mg/kg p.o., q3d×4", "result": 40, "unit": "%"}, {"measurement": "62-day survival rate", "setting": "[1]; [6]", "result": 70, "unit": "%"}, {"measurement": "62-day survivors (number of 10 mice)", "setting": "[1]; [6]", "result": "seven"}, {"measurement": "CR responses on Day 62", "setting": "[1]; [6]", "result": 4}, {"measurement": "PR responses on Day 62", "setting": "[1]; [6]", "result": 1}, {"measurement": "SD/PD responses on Day 62", "setting": "[1]; [6]", "result": 2}, {"measurement": "tolerability", "setting": "[1]; [6]", "result": "well tolerated"}, {"measurement": "mean day of survival (MDS)", "setting": "[1]; in 3% DMA 2.0 mg/kg p.o., q3d×4, Group 13 (n=3)", "result": 47.6, "unit": "days"}, {"measurement": "tumor growth delay (TGD)", "setting": "[1]; in 3% DMA 2.0 mg/kg p.o., q3d×4, vs vehicle control Group 4", "result": 21.6, "unit": "days"}, {"measurement": "62-day survival rate", "setting": "[1]; [7]", "result": 70, "unit": "%"}, {"measurement": "62-day survivors (number of 10 mice)", "setting": "[1]; [7]", "result": "seven"}, {"measurement": "CR responses on Day 62", "setting": "[1]; [7]", "result": 4}, {"measurement": "SD/PD responses on Day 62", "setting": "[1]; [7]", "result": 3}, {"measurement": "tolerability", "setting": "[1]; [7]", "result": "well tolerated"}, {"measurement": "mean day of survival (MDS)", "setting": "[1]; in 3% DMA 4.0 mg/kg p.o., q3d×4, Group 12 (n=3)", "result": 45.3, "unit": "days"}, {"measurement": "tumor growth delay (TGD)", "setting": "[1]; in 3% DMA 4.0 mg/kg p.o., q3d×4, vs vehicle control Group 4", "result": 19.3, "unit": "days"}]}]}
